Measurements taken from patent publication US9896445B2, “Heterocyclic inhibitors of ERK1 and ERK2 and their use in the treatment of cancer” (Asana Biosciences, LLC, priority 2015, dated 2018).

Columns and labels:
[1] = target: T1, ERK1 (Homo sapiens, UniProt P27361); experiment: ERK1 HTRF (biochemical) assay
T1 construct: purchased Jubilant Biosys
Protocol: ERK1 and ERK2 HTRF (Biochemical) Assays
These assays employed a homogeneous time resolved fluorescence (HTRF) technique. […] The plate was incubated at room temperature for 60 min with shaking. […] The IC50 values (half maximal inhibitory concentration values) were subsequently determined using a sigmoidal dose-response curve (variable slope) in GraphPad Prism® 5 software.

[2] = target: T2, ERK2 (Homo sapiens, UniProt P28482); experiment: ERK2 HTRF (biochemical) assay
T2 construct: purchased Jubilant Biosys
T2 sequence (P28482 whole entry): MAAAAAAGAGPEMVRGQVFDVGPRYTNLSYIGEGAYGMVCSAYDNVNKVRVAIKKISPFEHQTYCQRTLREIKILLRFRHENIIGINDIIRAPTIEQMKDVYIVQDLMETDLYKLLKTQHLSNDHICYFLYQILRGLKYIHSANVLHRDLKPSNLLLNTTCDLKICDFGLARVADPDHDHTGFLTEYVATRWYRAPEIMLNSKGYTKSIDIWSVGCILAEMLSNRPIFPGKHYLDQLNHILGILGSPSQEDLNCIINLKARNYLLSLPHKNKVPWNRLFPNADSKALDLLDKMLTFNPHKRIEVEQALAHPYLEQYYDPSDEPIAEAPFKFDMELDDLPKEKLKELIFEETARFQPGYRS
Outline: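 Compounds were tested as half-log dilutions from 0.0005 to 10 uM in Tris pH 7.5/MgCl2 buffer, with a substrate mix of 1 uM biotin-MBP peptide and 24 uM ATP and an enzyme mix of 25 nM ERK2. Reaction ran 60 min at room temperature. Phospho-MBP was detected by HTRF (Eu-anti-phospho-MBP/SA-APC, 665/620 nm), and IC50 was fitted with a variable-slope sigmoidal curve.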

T1 sequence (P27361 whole entry): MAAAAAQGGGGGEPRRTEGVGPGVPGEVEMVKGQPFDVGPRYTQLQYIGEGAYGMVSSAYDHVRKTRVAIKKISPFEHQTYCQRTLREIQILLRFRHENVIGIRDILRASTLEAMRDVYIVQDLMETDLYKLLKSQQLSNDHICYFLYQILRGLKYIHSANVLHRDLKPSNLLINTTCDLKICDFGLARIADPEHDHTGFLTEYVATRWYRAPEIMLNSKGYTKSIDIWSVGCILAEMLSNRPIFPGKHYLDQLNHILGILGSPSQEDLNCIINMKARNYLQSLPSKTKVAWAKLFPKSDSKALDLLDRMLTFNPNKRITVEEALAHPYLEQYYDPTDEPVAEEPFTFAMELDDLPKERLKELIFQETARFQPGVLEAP

Structure (SMILES) | IC50 ([1]; HTRF) | IC50 ([2]; HTRF) | IC50 ([1]; HTRF biochemical assay) | IC50 ([2]; HTRF biochemical assay)
CCC(COC)Nc1ncc(C)c(-n2ccc(C(=O)NC(CO)c3cccc(Cl)c3)c2)n1 (centres unmarked) [Compound 127, N-(1-(3-chloro-phenyl)-2-hydroxy-ethyl)-1-(2-((1-methoxybutan-2-yl)amino)-5-methylpyrimidin-4-yl)-1H-pyrrole-3-carboxamide] | < 50 nM | ≤ 50 nM |  | 
Cc1cn(-c2nc(Nc3ccc(F)cc3)ncc2C)cc1C(=O)NC(CO)c1ccccc1 (centres unmarked) [Compound 108, 1-(2-((4-fluoro-phenyl)amino)-5-methylpyrimidin-4-yl)-N-(2-hydroxy-1-phenylethyl)-4-methyl-1H-pyrrole-3-carboxamide] | < 50 nM | ≤ 50 nM |  | 
Cc1cnc(Nc2ccc3c(c2)OCO3)nc1-n1cc(NC(=O)N[C@@H](CO)c2cccc(Cl)c2)cn1 [Compound 51, (R)-1-(1-(2-(benzo[d][1,3]dioxol-5-ylamino)-5-methylpyrimidin-4-yl)-1H-pyrazol-4-yl)-3-(1-(3-chloro-phenyl)-2-hydroxy-ethyl)urea] | 100 to 500 nM | 50 to 100 nM |  | 
Cc1cnc(NC2CCOCC2)nc1-n1cnc(C(=O)NCc2ccccc2C(C)(C)O)c1 [Example 293, N-(2-(2-hydroxy-propan-2-yl)benzyl)-1-(5-methyl-2-((tetrahydro-2H-pyran-4-yl)amino)-pyrimidin-4-yl)-1H-imidazole-4-carboxamide] | < 50 nM | ≤ 50 nM |  | 
NCC(NC(=O)c1cn(-c2ccnc(Nc3ccc(F)cc3)c2)cn1)c1ccccc1 (centres unmarked) [Compound 221, N-(2-amino-1-phenylethyl)-1-(2-((4-fluorophenyl)-amino)pyridin-4-yl)-1H-imidazole-4-carboxamide] | < 50 nM | ≤ 50 nM |  | 
Cc1cnc(Nc2ccc3c(c2)CCCO3)nc1-n1ccc(C(=O)NC(CO)c2ccccc2)c1 (centres unmarked) [Compound 173, 1-(2-(chroman-6-ylamino)-5-methyl-pyrimidin-4-yl)-N-(2-hydroxy-1-phenylethyl)-1H-pyrrole-3-carboxamide] | < 50 nM | ≤ 50 nM |  | 
Cc1cnc(Nc2ccc(F)c(N3CCOCC3)c2)nc1-n1cnc(C(=O)NC(CN)c2cccc(Cl)c2)c1 (centres unmarked) [Example 256, N-(2-amino-1-(3-chlorophenyl)ethyl)-1-(2-((4-fluoro-3-morpholinophenyl)amino)-5-methyl-pyrimidin-4-yl)-1H-imidazole-4-carboxamide] | < 50 nM | ≤ 50 nM |  | 
Cc1cnc(NC2(CO)CC2)nc1-n1ccc(C(=O)NC(CO)c2ccc(F)c(Cl)c2)c1 (centres unmarked) [Compound 203, N-(1-(3-chloro-4-fluorophenyl)-2-hydroxyethyl)-1-(2-((1-(hydroxy-methyl)cyclopropyl)amino)-5-methyl-pyrimidin-4-yl)-1H-pyrrole-3-carboxamide] | 100 to 500 nM | 100 to 500 nM |  | 
O=C(NC(CO)c1cccc(Cl)c1)c1cn(-c2cc(Nc3ccccc3)ncc2Cl)cn1 (centres unmarked) [Compound 106, 1-(5-Chloro-2-(phenylamino)pyridin-4-yl)-N-(1-(3-chlorophenyl)-2-hydroxyethyl)-1H-imidazole-4-carboxamide] | < 50 nM | ≤ 50 nM |  | 
Cc1cnc(Nc2ccc3c(c2)OCO3)nc1-n1ccc(C(=O)N[C@H](CO)c2ccccc2)c1 [Compound 60, (S)-1-(2-(benzo[d][1,3]dioxol-5-ylamino)-5-methylpyrimidin-4-yl)-N-(2-hydroxy-1-phenylethyl)-1H-pyrrole-3-carboxamide] | < 50 nM | ≤ 50 nM |  | 
Cc1cnc(Nc2ccc3c(c2)OCO3)nc1-n1ccc(C(=O)N[C@H](CO)Cc2ccccc2)c1 [Compound 59, (S)-1-(2-(benzo[d][1,3]dioxol-5-ylamino)-5-methylpyrimidin-4-yl)-N-(1-hydroxy-3-phenylpropan-2-yl)-1H-pyrrole-3-carboxamide] | 50 to 100 nM | ≤ 50 nM |  | 
Cc1cnc(Nc2ccc(N3CCNCC3)cc2)cc1-n1ccc(C(=O)NC(CO)c2ccccc2)c1 (centres unmarked) [Compound 83, N-(2-hydroxy-1-phenylethyl)-1-(5-methyl-2-((4-(piperazin-1-yl)-phenyl)amino)-pyridin-4-yl)-1H-pyrrole-3-carboxamide] | 100 to 500 nM | ≤ 50 nM |  | 
Cc1cnc(Nc2ccc(F)cc2Cl)nc1-n1cc(C(=O)NC(CN)c2ccccc2)cn1 (centres unmarked) [Compound 54, N-(2-amino-1-phenylethyl)-1-(2-((2-chloro-4-fluoro-phenyl)amino)-5-methylpyrimidin-4-yl)-1H-pyrazole-4-carboxamide] | 50 to 100 nM | ≤ 50 nM |  | 
Cc1cnc(NC2CCOCC2)nc1-n1cnc(C(=O)N[C@H](CNCC2CC2)c2cccc(Cl)c2)c1 [Example 339, 1-[5-Methyl-2-(tetrahydro-pyran-4-ylamino)-pyrimidin-4-yl]-1H-imidazole-4-carboxylic acid [(S)-1-(3-chloro-phenyl)-2-(cyclopropylmethyl-amino)-ethyl]-amide] |  |  | < 50 nM | ≤ 50 nM
Cc1cnc(Nc2cccc3c2OC(F)(F)O3)nc1-n1ccc(C(=O)NC(CO)c2cccc(Cl)c2)c1 (centres unmarked) [Compound 160, N-(1-(3-chloro-phenyl)-2-hydroxy-ethyl)-1-(2-((2,2-difluoro-benzo[d][1,3]dioxol-4-yl)amino)-5-methylpyrimidin-4-yl)-1H-pyrrole-3-carboxamide] | < 50 nM | ≤ 50 nM |  | 
Cc1cnc(NC2CCN(C)CC2)nc1-n1cnc(C(=O)N[C@H](CO)c2cccc(Cl)c2)c1 [Example 296, (S)-N-(1-(3-chlorophenyl)-2-hydroxyethyl)-1-(5-methyl-2-((1-methylpiperidin-4-yl)amino)-pyrimidin-4-yl)-1H-imidazole-4-carboxamide] | < 50 nM | ≤ 50 nM |  | 
Cc1cn(-c2ccnc(Nc3ccc(F)cc3)n2)cc1C(=O)NC(CO)c1cccc(Cl)c1 (centres unmarked) [Compound 110, N-(1-(3-chloro-phenyl)-2-hydroxyethyl)-1-(2-((4-fluorophenyl)-amino)pyrimidin-4-yl)-4-methyl-1H-pyrrole-3-carboxamide] | 50 to 100 nM | ≤ 50 nM |  | 
Cc1cnc(Nc2ccc3c(c2)OCO3)nc1-n1cc(NC(=O)N[C@H](CO)c2cccc(Cl)c2)cn1 [Compound 44, (S)-1-(1-(2-(benzo[d][1,3]dioxol-5-ylamino)-5-methylpyrimidin-4-yl)-1H-pyrazol-4-yl)-3-(1-(3-chloro-phenyl)-2-hydroxy-ethyl)urea] | 50 to 100 nM | ≤ 50 nM |  | 
Cc1cnc(NC2CCOCC2)nc1-n1cnc(C(=O)NC(C)(C)c2cccc(Cl)c2CO)c1 [Example 341, N-(2-(3-chloro-2-(hydroxymethyl)-phenyl)propan-2-yl)-1-(5-methyl-2-((tetrahydro-2H-pyran-4-yl)amino)-pyrimidin-4-yl)-1H-imidazole-4-carboxamide] |  |  | < 50 nM | ≤ 50 nM
Cc1cnc(N[C@@H]2CCOC2)nc1-n1cnc(C(=O)N[C@H](CN)c2cccc(Cl)c2)c1 [Example 264, N-((S)-2-amino-1-(3-chlorophenyl)-ethyl)-1-(5-methyl-2-(((R)-tetrahydrofuran-3-yl)amino)pyrimidin-4-yl)-1H-imidazole-4-carboxamide] | < 50 nM | ≤ 50 nM |  | 
C#Cc1cccc(Nc2nccc(-n3cc(NC(=O)N[C@H](CO)c4cccc(Cl)c4)cn3)n2)c1 [Compound 38, (S)-1-(1-(3-chlorophenyl)-2-hydroxyethyl)-3-(1-(2-((3-ethynyl-phenyl)amino)pyrimidin-4-yl)-1H-pyrazol-4-yl)urea] | < 50 nM | ≤ 50 nM |  | 
CCC(C)Nc1ncc(C)c(-n2ccc(C(=O)N[C@H](CO)c3ccc(F)c(Cl)c3)c2)n1 (stereo partly drawn) [Compound 197, 1-(2-(sec-butylamino)-5-methylpyrimidin-4-yl)-N-((S)-1-(3-chloro-4-fluoro-phenyl)-2-hydroxy-ethyl)-1H-pyrrole-3-carboxamide] | < 50 nM | ≤ 50 nM |  | 
Cc1cnc(NC2CC2)nc1-n1cc(NC(=O)N[C@H](CO)c2cccc(Cl)c2)cn1 [Compound 3, (S)-1-(1-(3-chlorophenyl)-2-hydroxyethyl)-3-(1-(2-(cyclopropyl-amino)-5-methyl-pyrimidin-4-yl)-1H-pyrazol-4-yl)urea] | 50 to 100 nM | 50 to 100 nM |  | 
CC(=O)NCC(NC(=O)c1ccn(-c2cc(Nc3ccc(F)cc3)ncc2C)c1)c1ccccc1 (centres unmarked) [Compound 135, N-(2-acetamido-1-phenylethyl)-1-(2-((4-fluorophenyl)-amino)-5-methyl-pyridin-4-yl)-1H-pyrrole-3-carboxamide] | < 50 nM | ≤ 50 nM |  | 
O=C(Nc1cnn(-c2ccnc(NC3CC3)n2)c1)N[C@H](CO)c1cccc(Cl)c1 [Compound 6, (S)-1-(1-(3-chlorophenyl)-2-hydroxyethyl)-3-(1-(2-(cyclopropyl-amino)pyrimidin-4-yl)-1H-pyrazol-4-yl)urea] | < 50 nM | ≤ 50 nM |  | 
Cc1cnc(NC2CCOCC2)nc1-n1cnc(C(=O)NCc2nccs2)c1 [Example 281, 1-(5-methyl-2-((tetrahydro-2H-pyran-4-yl)amino)-pyrimidin-4-yl)-N-(thiazol-2-ylmethyl)-1H-imidazole-4-carboxamide] | < 50 nM | ≤ 50 nM |  | 
Cc1cnc(NC2CCOCC2)nc1-n1cnc(C(=O)N[C@H](CNC2CCOCC2)c2cccc(Cl)c2)c1 [Example 308, (S)-N-(1-(3-chlorophenyl)-2-((tetrahydro-2H-pyran-4-yl)amino)-ethyl)-1-(5-methyl-2-((tetrahydro-2H-pyran-4-yl)amino)-pyrimidin-4-yl)-1H-imidazole-4-carbox amide] |  |  | < 50 nM | ≤ 50 nM
Cc1cnc(NC2CCOCC2)nc1-n1cnc(C(=O)NC(CN)c2cccs2)c1 (centres unmarked) [Example 267, N-(2-amino-1-(thiophen-2-yl)ethyl)-1-(5-methyl-2-((tetrahydro-2H-pyran-4-yl)amino)-pyrimidin-4-yl)-1H-imidazole-4-carboxamide] | < 50 nM | ≤ 50 nM |  | 
